# Results filed as inconclusive are left out. Activity calls are given as the source filed them.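 The calls were made as follows: active = relative estrogen receptor binding affinity above 1E-5, where estradiol scores 100; inconclusive = weak binder, under half inhibition at top dose, or affinity below 1E-5; inactive = no binding seen, affinity zero.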
# System: estrogen receptor (rat uterine cytosol)
# Experiment: DSSTox (NCTRER) National Center for Toxicological Research Estrogen Receptor Binding Database;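 as to relative binding affinity: ratio of estradiol IC50 over compound IC50 times 100 so estradiol equals 100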
# Details: rat uterine cytosol ER competitive binding, RBA; for relative binding affinity: active compounds read high
# Source text: Researchers within FDA's National Center for Toxicological Research (NCTR) generated a database of experimental estrogen receptor binding results for the express purpose of developing improved QSAR models to predict ER binding affinities.The NCTR ER database is a structurally diverse set of natural, synthetic, and environmental estrogens covering most known estrogenic classes and spanning a wide range of biological activity. It represents the largest published ER binding database of same-assay results generated in a single laboratory. […] Information on the percent purity and purchasing source for all chemicals are not included in the DSSTox SDF, but can be obtained from the original NCTR ER Source database and Main Citations listed below. The main citation (Fang et al., 2001) surveys the NCTR ER database from a chemical class based, structure-activity relationship (SAR) perspective. Qualitative SAR characteristics of the NCTR ER database are discussed and a set of general hierarchical rules for identifying potential estrogens are presented. The DSSTox NCTRER SDF augments the original NCTR ER database with chemical class and SAR information abstracted from Fang et al. (2001). The DSSTox SDF file supplements the measured ER relative binding affinity for each chemical (ER_RBA) with chemical class assignment to one of 6 major estrogenic classes further divided into 20 subclasses (ChemClass_ERB), along with a qualitative activity measure, ActivityCategory_ER_RBA. A brief narrative SAR rationale pertaining to ER RBA patterns observed by Fang et al. (2001) for each of the 20 subclasses within the database are provided in the field, ActivityCategory_Rationale_ChemClass_ERB. The original NCTR ER database, from which the expanded DSSTox NCTRER was formed, is contained within a larger Endocrine Disruptor Knowledge Base (EDKB) accessible from the FDA Source Website. That website provides online access to a relational database comprised of in vitro and in vivo experimental data for about 2000 natural and synthetic compounds, much of this extracted from the literature and representing testing in many laboratories. Data are included for biological assays that measure estrogenic and androgenic activity. Estrogenic endpoints include in vitro assays for estrogen receptor competitive binding affinity, cell proliferation, and reporter-gene assays, and in vivo assays for uterotrophic activity (i.e., uterine weight gain and vaginal cornification). The database also contains a bibliography of over 1200 citations, many of which include abstracts.
# Estrogen receptor relative binding affinity is determined using a competitive receptor binding assay as described in NCTRER Ref (Blair et al., 2000). Briefly, a chemical competes with radiolabeled E2 (i.e., estradiol) for binding to the ER in rat uterine cytosol and the concentration of chemical that causes 50% inhibition of E2 binding (i.e., IC50) is measured. The ER_RBA is calculated by dividing the IC50 of E2 (9X10-10M) by the IC50 of the competitor and multiplying by 100 (E2 RBA = 100). The validated assay tested 1nM E2 with concentrations of competitor ranging from 1nM to 1mM. The larger the ER_RBA values, the greater the binding affinity; ER_RBA > 100 means compound has greater binding affinity than natural ER ligand, E2. […] Activity Score is mapping of LOG_ER_RBA values (ER-RBA>1E-5), spanning activity range [MIN, MAX] onto Integer 20-100 Activity range, where 100 is highest potency and 20 is lowest active potency. If Activity Outcome is "active": Activity Score = 80 * INTEGER[(LOG_ER_RBA - MIN)/(MAX […] MIN)]. If Activity Outcome is "inconclusive" (i.e., slight binder): Activity Score = 5.
# [1] = ChemClass_ERB: Phytoestrogens Isoflavones
# [2] = ChemClass_ERB: Diphenylmethanes DDTs
# [3] = ChemClass_ERB: Steroids Without aromatic A ring
# [4] = ChemClass_ERB: Phytoestrogens Chalconoids
# [5] = ChemClass_ERB: Phytoestrogens Flavones
# [6] = ChemClass_ERB: Diphenylmethanes Benzophenones
# [7] = ChemClass_ERB: Phytoestrogens Flavanones
# [8] = ChemClass_ERB: Phytoestrogens Mycoestrogens
structure (smiles),measurement,setting,value
Oc1ccccc1,outcome,ChemClass_ERB: Phenols Alkyl,inactive
CCC(c1ccc(C)cc1)C(CC)c1ccc(O)cc1 (stereo unspecified),relative binding affinity,ChemClass_ERB: DES Hexestrol derivatives,3.98%
Oc1ccc(-c2ccccc2)c(Cl)c1,relative binding affinity,ChemClass_ERB: Biphenyls PCBs,0.00169%
CCCCCCO,outcome,ChemClass_ERB: Misc,inactive
O=c1c(-c2ccc(O)cc2)coc2cc(O)c(O)cc12,outcome,[1],inactive
Cn1c(=O)c2c(ncn2C)n(C)c1=O,outcome,ChemClass_ERB: Misc,inactive
ClC1(Cl)C2(Cl)C3(Cl)C4(Cl)C(Cl)(Cl)C5(Cl)C3(Cl)C1(Cl)C5(Cl)C24Cl (stereo unspecified),outcome,ChemClass_ERB: Misc,inactive
COc1ccc(C(c2ccc(OC)cc2)C(Cl)(Cl)Cl)cc1,outcome,[2],inactive
Oc1ccc(-c2cc(Cl)c(Cl)c(Cl)c2Cl)cc1,relative binding affinity,ChemClass_ERB: Biphenyls PCBs,0.23%
O=C(/C=C/c1ccccc1)c1ccc(O)cc1,relative binding affinity,[4],0.0037%
Oc1ccc(-c2cc(Cl)ccc2Cl)cc1,relative binding affinity,ChemClass_ERB: Biphenyls PCBs,0.0363%
CCC(C)c1ccccc1 (stereo unspecified),outcome,ChemClass_ERB: Misc,inactive
C[C@]12CC[C@@H]3c4ccccc4CC[C@H]3[C@@H]1CC[C@@H]2O,relative binding affinity,ChemClass_ERB: Steroids With aromatic A ring,0.501%
CC(CCC(=O)O)(c1ccc(O)cc1)c1ccc(O)cc1,relative binding affinity,ChemClass_ERB: Diphenylmethanes Diphenolalkanes,0.00074%
CCOC(=O)/C=C/c1ccccc1,outcome,ChemClass_ERB: Misc,inactive
C/C(=C(/C)c1ccc(O)cc1)c1ccc(O)cc1,relative binding affinity,ChemClass_ERB: DES Derivatives,14.4%
O=c1c(O)c(-c2ccc(O)c(O)c2)oc2cc(O)ccc12,relative binding affinity,[5],0.00446%
CC/C(=C(/CC)c1ccc(OC)cc1)c1ccc(O)cc1,relative binding affinity,ChemClass_ERB: DES Derivatives,20.4%
CC(C)CCCCCCOC(=O)c1ccccc1C(=O)OCCCCCCC(C)C,outcome,ChemClass_ERB: Misc,inactive
Oc1ccc(/C=C/c2ccc(O)cc2)cc1,relative binding affinity,ChemClass_ERB: DES Derivatives,0.282%
O=C(c1ccccc1)c1ccc(O)cc1O,relative binding affinity,[6],0.00245%
Oc1ccc([C@H]2COc3cc(O)ccc3C2)cc1,relative binding affinity,[1],0.151%
C[C@H](Cc1ccc(O)c(O)c1)[C@H](C)Cc1ccc(O)c(O)c1,relative binding affinity,ChemClass_ERB: Misc,0.0309%
O=C(c1ccccc1O)c1ccccc1O,outcome,[6],inactive
CC/C(=C(/c1ccc(OCCN(C)C)cc1)c1cccc(O)c1)c1ccccc1,relative binding affinity,ChemClass_ERB: DES Triphenylethylenes,15.1%
Oc1cc(O)c2c(c1)O[C@H](c1ccc(O)c(O)c1)[C@@H](O)C2,outcome,[7],inactive
O=C1CC(c2cccc(O)c2)Oc2ccccc21 (stereo unspecified),relative binding affinity,[7],0.00165%
O=S1OCC2C(CO1)C1(Cl)C(Cl)=C(Cl)C2(Cl)C1(Cl)Cl (stereo unspecified),outcome,ChemClass_ERB: Misc,inactive
C[C@]12CC[C@H](O)C[C@@H]1CC[C@@H]1[C@@H]2CC[C@]2(C)[C@@H](O)CC[C@@H]12,relative binding affinity,[3],0.12%
C[C@]12CCC(=O)C=C1CC[C@@H]1[C@@H]2[C@@H](O)C[C@]2(C=O)[C@@H](C(=O)CO)CC[C@@H]12,outcome,[3],inactive
C[C@]12C[C@H](O)[C@H]3[C@@H](CCC4=CC(=O)CC[C@@]43C)[C@@H]1CC[C@@H]2C(=O)CO,outcome,[3],inactive
O=C(/C=C/c1ccc(O)cc1)c1ccc(O)cc1O,relative binding affinity,[4],0.055%
CNC(=O)Oc1cccc2ccccc12,outcome,ChemClass_ERB: Misc,inactive
CCc1cccc(C)c1N(C(=O)CCl)C(C)COC (stereo unspecified),outcome,ChemClass_ERB: Misc,inactive
C[C@@H]1O[C@@H](O[C@H]2[C@H](Oc3cc(O)c4c(c3)O[C@H](c3ccc(O)cc3)CC4=O)O[C@H](CO)[C@@H](O)[C@@H]2O)[C@H](O)[C@H](O)[C@H]1O,outcome,[7],inactive
O=C(c1ccc(O)cc1)c1ccc(O)cc1,relative binding affinity,ChemClass_ERB: Diphenylmethanes Benzophenone,0.0035%
O=c1cc(-c2ccc(O)cc2)oc2ccc(O)cc12,relative binding affinity,[5],0.151%
ClC(Cl)=C(c1ccc(Cl)cc1)c1ccc(Cl)cc1,outcome,[2],inactive
C[C@H]1CCCC(=O)CCCCCc2cc(O)cc(O)c2C(=O)O1,relative binding affinity,[8],2.09%
Oc1cccc(-c2ccccc2)c1,relative binding affinity,ChemClass_ERB: Biphenyls nonchlorinated,0.00036%
Oc1ccc(-c2ccc(Cl)cc2)cc1,relative binding affinity,ChemClass_ERB: Biphenyls PCBs,0.0066%
O=c1c(O)c(-c2cc(O)c(O)c(O)c2)oc2cc(O)cc(O)c12,relative binding affinity,[5],0.00177%
C[C@H]1CCC[C@@H](O)CCCCCc2cc(O)cc(O)c2C(=O)O1,relative binding affinity,[8],0.646%
CCCCc1ccccc1,outcome,ChemClass_ERB: Misc,inactive
CC12CCC(CC1)C(C)(C)O2,outcome,ChemClass_ERB: Misc,inactive

# Reference: PubChem BioAssay AID1204 (EPA DSSTox, 2008)
